Experimental data from patent US20220339143A1, “TAK-925 FOR USE IN TREATING NARCOLEPSY” (Takeda Pharmaceutical Company Limited, priority 2019, published 2022).
Read-outs that look alike come from different tables or passages of the source.

Key:
Type in all cases: in vivo, human
[1] = system: patients with narcolepsy type 1 (NT1); assay: Safety/tolerability of a single dose given as 9 hour continuous IV infusion in NT1 patients
Description: This study investigates (i) the safety and tolerability of Compound A (methyl (2R,3S)-3-((methylsulfonyl)amino)-2-(((cis-4-phenylcyclohexyl)oxy)methyl)piperidine-1-carboxylate) when a single dose given as a 9 hour continuous IV infusion is administered to healthy adults, healthy elderly subjects and patients with narcolepsy type 1 (NT1); (ii) the pharmacokinetics of Compound A when a single dose given as a 9 hour continuous IV infusion is administered to healthy adults, healthy elderly subjects and patients with narcolepsy type 1; and (iii) the pharmacodynamics (PD) effects of Compound A, primarily by evaluation of the sleep latency on MWT when a single dose given as a 9 hour continuous IV infusion is administered to patients with narcolepsy type 1.
Safety and tolerability: adverse events, vital signs, 12-lead ECG and clinical laboratory tests (hematological tests, blood biochemical tests and urinalysis)
To investigate the safety of Compound A, the treatment-emergent adverse events (TEAEs) for healthy subjects and subjects with narcolepsy type 1 (NT1 patients) treated with Compound A were evaluated. A summary of the TEAEs for healthy subjects from cohorts 1 and 2 is shown in FIG. 3, for healthy subjects from cohorts S1, S2, 3, and 4 is shown in FIG. 4, and for NT1 patients is shown in FIG. 5.

[2] = Multiple-dose PK of intravenous Compound A in patients with NT1 (Cohorts B1, B2), plasma; conditions: for clearance: read-out: CL, Mean (converted)
Description: (§1) The purpose of the study was to evaluate the safety, tolerability, pharmacokinetics and pharmacodynamics of Compound A after multiple IV administration in patients with NT1. NT1 patients were evaluated in Cohort B1 and B2 (Table 19). Compound A or placebo were administered via IV infusion over 9 hours once daily for 7 days. A total of 13 patients with NT1 were treated with Compound A or placebo (4, 4, and 5 subjects in the placebo, Compound A 11 mg, and Compound A 44 mg groups, respectively). In this part, potential efficacy of Compound A was evaluated with MWT, ESS, KSS, night-time PSG (NPSG), cataplexy frequency assessment, and PGI-C as an exploratory PD assessment.
Blood samples used for PK analysis of Compound A was collected according to Table 20. See also FIG. 12 for whole schedules of study procedures.

patients with NT1 [3] = assay: Number of cataplexy episodes (self-recorded sleep diary), multiple dose (Cohorts B1, B2); conditions: for Number of Cataplexy Episodes, Median / Number of Cataplexy Episodes, Mean: Treatment Period (Day 1-7 [until 24 hours after start of infusion])
Description: as §1
An overview of study schedule and PD testing in NT1 Patients is illustrated in FIG. 11. After screening, patients eligible for these parts had to discontinue any medication for narcolepsy including medications used for EDS or cataplexy. The medications had to be stopped for a minimum of 7 days or at least 5 half-lives of each medication, whichever was longer, before the first day of dosing (Day 1). As for a subject having possibility of getting injured due to severe cataplexy, the subject might have been confined to the site before Day −2 at a discretion of the investigator. In all cohorts of these parts, subjects underwent NPSG on Day −2 and baseline MWT sessions 4 times on Day −1 (at around 10:00, 12:00, 14:00, and 16:00). Study drug dosing via IV infusion was started at around 08:00. MWT was conducted on Day 1 at around 10:00, 12:00, 14:00, and 16:00. Subjects were allowed to take a nap on the days with no MWT assessment. At night of Day 6, the subjects underwent NPSG once again to evaluate the effect of multiple daytime dosing on night-time sleep structure. On Day 7, the subjects underwent MWT at the same hours as on Day −1. Cataplexy was to be evaluated by using the self-recorded sleep diary. The subjects were discharged from the study site on Day 8.

patients with NT1 [4] = assay: Safety and tolerability of multiple IV administration in patients with NT1
Description: as §1

[5] = human, plasma, intravenous, 11 mg, Day 7

With COC(=O)N1CCC[C@H](NS(C)(=O)=O)[C@@H]1CO[C@H]1CC[C@@H](c2ccccc2)CC1 [Compound A, methyl (2R,3S)-3-((methylsulfonyl)amino)-2-(((cis-4-phenylcyclohexyl)oxy)methyl)piperidine-1-carboxylate] the “AEs observed in NT1 at the highest dose” value ([1]; 44.8 mg) was “Blood pressure increase, heart rate increase, central nervous system (CNS) related symptoms (euphoric mood, hypnagogic hallucination and logorrhea) and salivary hypersecretion were observed”, the “dose dependent effect on BP and heart rate increase” value ([1]; NT1 subjects, doses up to 44.8 mg) was “not notable” and the tolerability ([1]; single dose, slow infusion over 9 hours, up to 44.8 mg, narcolepsy type 1 patients) was “well-tolerated with no major safety concerns”. For the same compound, the “AUCtau D, Mean” value ([2]; 11 mg, Day 1) was 15.00 ng·h/mL/mg, the “Cmax D Mean” value ([2]; 11 mg, Day 1) was 1.660 ng/mL/mg and the “Vax, Mean” value ([2]; 11 mg, Day 1) was 129.6 L. For the same compound, the “AUCtau D, Mean” value ([2]; 11 mg, Day 7) was 16.70 ng·h/mL/mg, the “Cmax D Mean” value ([2]; 11 mg, Day 7) was 1.868 ng/mL/mg and the “Cmin, Mean” value ([2]; 11 mg, Day 7) was 0.3258 ng/mL. The “PTR, Mean” value ([2]; 11 mg, Day 7) was 57.07, the “Vx, Mean” value ([2]; 11 mg, Day 7) was 313.0 L and the “t½z Mean” value ([2]; 11 mg, Day 7) was 3.595 h. The “Cmin, Geo Mean” value ([2]; 11 mg, Day 7 (N of Geo Mean 3)) was 0.4061 ng/mL, the “AUCtau D, Mean” value ([2]; 44 mg, Day 1) was 15.70 ng·h/mL/mg and the “Vax, Mean” value ([2]; 44 mg, Day 1) was 135.0 L. For the same compound, the “Vz, Mean” value ([2]; 44 mg, Day 1) was 316.2 L, the “AUCtau D, Mean” value ([2]; 44 mg, Day 7) was 16.56 ng·h/mL/mg and the “Cmax D Mean” value ([2]; 44 mg, Day 7) was 1.858 ng/mL/mg. The “Cmin, Mean” value ([2]; 44 mg, Day 7) was 1.327 ng/mL, the “PTR, Mean” value ([2]; 44 mg, Day 7) was 70.28 and the “Vx, Mean” value ([2]; 44 mg, Day 7) was 375.2 L. The “t½z Mean” value ([2]; 44 mg, Day 7) was 4.222 h, the drug accumulation ([2]; QD dosing, 9-hour IV infusion daily for 7 days) was “no drug accumulation was observed” and the “dose proportionality of mean plasma systemic exposures” value ([2]; daily 9-hour IV infusions, 11 and 44 mg) was “generally increased in a dose proportional manner”. The AUC(0-inf) ([2]; human, plasma, intravenous, 11 mg, Day 1, read-out: AUCinf, Geo Mean) was 166 ng·h/mL, the AUC(0-inf) ([2]; human, plasma, intravenous, 11 mg, Day 1, read-out: AUCinf, Mean) was 167 ng·h/mL and the AUC(0-t) ([2]; human, plasma, intravenous, 11 mg, Day 1, read-out: AUClast, Geo Mean) was 164 ng·h/mL. The AUC ([2]; human, plasma, intravenous, 11 mg, Day 1, read-out: AUCtau, Geo Mean) was 164 ng·h/mL, the AUC ([2]; human, plasma, intravenous, 11 mg, Day 1, read-out: AUCtau, Mean) was 165 ng·h/mL and the Cmax ([2]; human, plasma, intravenous, 11 mg, Day 1, read-out: Cmax, Geo Mean) was 18.2 ng/mL. For the same compound, the Cmax ([2]; human, plasma, intravenous, 11 mg, Day 1, read-out: Cmax, Mean) was 18.3 ng/mL, the AUC(0-t) ([2]; human, plasma, intravenous, 11 mg, Day 7, read-out: AUClast, Geo Mean) was 182 ng·h/mL and the AUC ([2]; human, plasma, intravenous, 11 mg, Day 7, read-out: AUCtau, Geo Mean) was 183 ng·h/mL. It also gave an AUC ([2]; human, plasma, intravenous, 11 mg, Day 7, read-out: AUCtau, Mean) of 184 ng·h/mL, a Cmax at 7 days ([2]; human, plasma, intravenous, 11 mg, Day 7, read-out: Cmax, Geo Mean) of 20.5 ng/mL and an AUC(0-inf) ([2]; human, plasma, intravenous, 44 mg, Day 1, read-out: AUCinf, Mean) of 697 ng·h/mL. It also gave an AUC(0-t) ([2]; human, plasma, intravenous, 44 mg, Day 1, read-out: AUClast, Geo Mean) of 682 ng·h/mL, an AUC ([2]; human, plasma, intravenous, 44 mg, Day 7, read-out: AUCtau, Geo Mean) of 723 ng·h/mL and an AUC ([2]; human, plasma, intravenous, 44 mg, Day 7, read-out: AUCtau, Mean) of 729 ng·h/mL. The Cmax at 7 days ([2]; human, plasma, intravenous, 44 mg, Day 7, read-out: Cmax, Geo Mean) was 81.2 ng/mL, the Vd ([2]; human, plasma, intravenous, 11 mg, Day 1, read-out: Vz, Mean) was 310 L and the Tmax at 7 days [2, 5] was 5.17 h. The clearance [2, 5] was 1010 mL/min, the clearance ([2]; human, plasma, intravenous, 44 mg, Day 1) was 1080 mL/min and the Tmax ([2]; human, plasma, intravenous, 44 mg, Day 7) was 4.93 h. For the same compound, the AUC(0-t) ([2]; human, plasma, iv, 11 mg, Day 1, 9 h IV infusion QD, NT1, read-out: AUClast, Mean) was 164 ng·h/mL, the “Number of Cataplexy Episodes (Time-matched), Median” value (from here on “Number … (Time-matched), Median”) (patients with NT1 [3]; 11 mg, Day 1-7 (after infusion time up to 24 hours after start of infusion)) was 1.0 and the “Number of Cataplexy Episodes (Time-matched), Mean” value (shortened to “Number … (Time-matched), Mean”) (patients with NT1 [3]; 11 mg, Day 1-7 (after infusion time up to 24 hours after start of infusion), time-matched baseline 5.8) was 3.0. The “Number … (Time-matched), Median” value (patients with NT1 [3]; 11 mg, Day 1-7 (during infusion time)) was 0.0, the “Number … (Time-matched), Mean” value (patients with NT1 [3]; 11 mg, Day 1-7 (during infusion time), time-matched baseline 5.8) was 0 and the “Number … (Time-matched), Mean” value (patients with NT1 [3]; 11 mg, Day 1-7 (during infusion time), time-matched baseline 5.8, listed as Cmpd A) was 0.0. The “Number of Cataplexy Episodes, Median” value (patients with NT1 [3]; 11 mg) was 1.0, the “Number of Cataplexy Episodes, Mean” value (patients with NT1 [3]; 11 mg, baseline 11.5) was 3.0 and the “Number … (Time-matched), Median” value (patients with NT1 [3]; 44 mg, Day 1-7 (after infusion time up to 24 hours after start of infusion)) was 1.0. The “Number … (Time-matched), Mean” value (patients with NT1 [3]; 44 mg, Day 1-7 (after infusion time up to 24 hours after start of infusion), time-matched baseline 0.4) was 1.4, the “Number … (Time-matched), Median” value (patients with NT1 [3]; 44 mg, Day 1-7 (during infusion time)) was 0.0 and the “Number … (Time-matched), Mean” value (patients with NT1 [3]; 44 mg, Day 1-7 (during infusion time), time-matched baseline 3.2) was 0. For the same compound, the “Number … (Time-matched), Mean” value (patients with NT1 [3]; 44 mg, Day 1-7 (during infusion time), time-matched baseline 3.2, listed as Cmpd A) was 0.0, the “Number of Cataplexy Episodes, Median” value (patients with NT1 [3]; 44 mg) was 1.0 and the “Number of Cataplexy Episodes, Mean” value (patients with NT1 [3]; 44 mg, baseline 3.6) was 1.4. The “BP and PR increases vs plasma exposure” value (patients with NT1 [4]; NT1 patient populations) was “A trend for the observed BP and PR increases with increasing Compound A plasma exposure was observed”, the safety and tolerability (patients with NT1 [4]; multiple IV administrations of up to 44 mg, 9 h infusion once daily for 7 days, NT1) was “safe and well tolerated” and the “SAE and TEAE leading to study drug discontinuation” value (patients with NT1 [4]; multiple IV administrations of up to 44 mg, NT1) was “There was no SAE, and no TEAE leading to study drug discontinuation”.
